What was measured:
[1] = molecular target: T1, Recombinant human TRKA (Homo sapiens, UniProt P04629); experiment: In vitro activity test on TRKA kinase (HTRF KinEASE TK); format: biochemical; details: 14.68 μM ATP, 40 min
T1 construct: purchased Carna Biosciences
Outline: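 Reaction: 0.2 ng/μL TRKA, 1 μM biotinylated TK substrate, 14.68 μM ATP, 5 mM MgCl2, 1 mM DTT, 1% DMSO, 40 min at room temperature. Compounds tested at 1 μM to 0.05 nM (10-point, 3-fold, duplicate). HTRF 665/620 ratio converted to % inhibition versus no-compound control; IC50 by 4-parameter fit.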

[2] = molecular target: T2, Recombinant human TRKB (Homo sapiens, UniProt Q16620); experiment: In vitro activity test on TRKB kinase (HTRF KinEASE TK); format: biochemical; details: 4.77 μM ATP, 50 min
T2 construct: purchased Carna Biosciences
T2 sequence (Q16620 32-822): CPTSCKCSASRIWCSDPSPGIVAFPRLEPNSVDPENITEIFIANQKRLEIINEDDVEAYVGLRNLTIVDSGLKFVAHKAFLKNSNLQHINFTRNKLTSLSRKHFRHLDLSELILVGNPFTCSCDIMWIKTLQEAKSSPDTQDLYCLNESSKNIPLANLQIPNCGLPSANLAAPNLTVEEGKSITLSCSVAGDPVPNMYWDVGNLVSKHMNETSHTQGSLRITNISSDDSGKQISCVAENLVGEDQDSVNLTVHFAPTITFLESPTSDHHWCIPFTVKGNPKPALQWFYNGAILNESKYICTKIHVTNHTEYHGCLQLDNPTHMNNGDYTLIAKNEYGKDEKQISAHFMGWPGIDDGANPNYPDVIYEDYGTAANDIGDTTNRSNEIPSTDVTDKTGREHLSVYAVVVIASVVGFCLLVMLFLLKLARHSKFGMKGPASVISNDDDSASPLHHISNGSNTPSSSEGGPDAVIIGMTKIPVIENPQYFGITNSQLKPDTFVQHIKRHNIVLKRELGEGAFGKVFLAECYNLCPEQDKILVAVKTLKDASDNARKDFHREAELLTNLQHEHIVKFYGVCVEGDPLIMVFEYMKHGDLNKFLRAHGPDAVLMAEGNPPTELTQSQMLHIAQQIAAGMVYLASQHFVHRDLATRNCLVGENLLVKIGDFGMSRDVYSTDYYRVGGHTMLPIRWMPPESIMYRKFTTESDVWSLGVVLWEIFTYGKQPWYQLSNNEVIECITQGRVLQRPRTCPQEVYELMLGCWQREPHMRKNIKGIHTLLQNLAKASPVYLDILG
Outline: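 Recombinant human TRKB (0.037 ng/μL) phosphorylated 1 μM biotinylated TK substrate at 4.77 μM ATP, 5 mM MgCl2, 1% DMSO, 50 min at room temperature; compounds 1 μM–0.05 nM. HTRF KinEASE detection overnight; 665/620 ratio converted to inhibition and IC50 from 4-parameter fit.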

[3] = molecular target: T3, Recombinant human TRKC (Homo sapiens, UniProt Q16288); experiment: In vitro activity test on TRKC kinase (HTRF KinEASE TK); format: biochemical; details: 25.64 μM ATP, 40 min
T3 construct: purchased Carna Biosciences
T3 sequence (Q16288 32-839): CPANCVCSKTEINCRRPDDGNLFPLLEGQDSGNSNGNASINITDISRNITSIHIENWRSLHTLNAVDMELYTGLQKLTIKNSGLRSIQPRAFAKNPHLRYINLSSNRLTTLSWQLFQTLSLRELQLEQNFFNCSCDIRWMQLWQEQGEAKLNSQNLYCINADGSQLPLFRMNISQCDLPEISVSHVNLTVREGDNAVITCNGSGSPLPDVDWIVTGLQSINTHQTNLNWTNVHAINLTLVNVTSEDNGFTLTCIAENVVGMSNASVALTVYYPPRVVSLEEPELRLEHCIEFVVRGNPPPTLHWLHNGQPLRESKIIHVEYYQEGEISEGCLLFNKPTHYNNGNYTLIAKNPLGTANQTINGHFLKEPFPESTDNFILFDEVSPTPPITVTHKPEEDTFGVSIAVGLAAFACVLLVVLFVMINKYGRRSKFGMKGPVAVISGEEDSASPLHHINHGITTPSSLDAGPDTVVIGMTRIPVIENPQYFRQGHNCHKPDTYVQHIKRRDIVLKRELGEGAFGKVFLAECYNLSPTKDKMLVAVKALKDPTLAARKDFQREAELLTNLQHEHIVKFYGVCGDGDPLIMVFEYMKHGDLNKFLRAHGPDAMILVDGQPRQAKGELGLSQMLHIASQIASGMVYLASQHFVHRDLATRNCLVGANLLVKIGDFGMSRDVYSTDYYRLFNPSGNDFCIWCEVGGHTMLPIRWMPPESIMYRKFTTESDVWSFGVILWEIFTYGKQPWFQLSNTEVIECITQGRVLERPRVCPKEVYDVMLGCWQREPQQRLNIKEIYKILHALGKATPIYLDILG
Outline: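 Recombinant human TRKC (0.037 ng/μL) with 1 μM biotinylated TK substrate, 25.64 μM ATP, 5 mM MgCl2, 1 mM DTT, 40 min at room temperature; compound 1 μM to 0.05 nM, 1% DMSO. HTRF 665/620 ratio after overnight detection; IC50 from 4-parameter fit.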

[4] = molecular target: T4, recombinant human TRKA (G595R) (Homo sapiens, UniProt P04629, G595R); experiment: In vitro activity test on mutant TRKA (G595R) (HTRF KinEASE TK); format: biochemical; details: 4.5 μM ATP, 30 min
T4 construct: purchased SignalChem
T4 sequence (P04629 33-796 G595R): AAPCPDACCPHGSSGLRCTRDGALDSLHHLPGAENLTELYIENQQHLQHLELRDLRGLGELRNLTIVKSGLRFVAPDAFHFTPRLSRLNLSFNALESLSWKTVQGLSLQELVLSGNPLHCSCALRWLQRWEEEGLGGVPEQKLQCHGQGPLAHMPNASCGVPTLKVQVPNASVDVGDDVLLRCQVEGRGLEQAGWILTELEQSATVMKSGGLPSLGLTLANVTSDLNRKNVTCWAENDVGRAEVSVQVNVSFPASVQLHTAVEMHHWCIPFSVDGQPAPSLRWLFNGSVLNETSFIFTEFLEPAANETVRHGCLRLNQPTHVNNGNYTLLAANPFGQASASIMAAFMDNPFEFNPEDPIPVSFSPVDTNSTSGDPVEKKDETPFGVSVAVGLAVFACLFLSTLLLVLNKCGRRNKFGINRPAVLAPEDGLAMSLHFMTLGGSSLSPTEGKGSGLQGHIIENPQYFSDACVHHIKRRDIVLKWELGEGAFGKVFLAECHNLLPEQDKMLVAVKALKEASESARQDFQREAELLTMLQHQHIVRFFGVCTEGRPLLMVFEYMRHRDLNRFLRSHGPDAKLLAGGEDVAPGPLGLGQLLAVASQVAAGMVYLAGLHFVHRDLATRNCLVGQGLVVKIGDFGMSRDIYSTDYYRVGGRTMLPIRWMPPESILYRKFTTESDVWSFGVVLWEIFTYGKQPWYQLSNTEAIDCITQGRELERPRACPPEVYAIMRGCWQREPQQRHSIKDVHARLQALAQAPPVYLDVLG
Outline: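 HTRF KinEASE TK format: 0.12 ng/μL recombinant TRKA (G595R), 1 μM biotinylated TK substrate, 4.5 μM ATP, 5 mM MgCl2, 1 mM DTT, 1% DMSO, 30 min at room temperature; detection overnight. IC50 from 10-point 4-fold series (1 μM to 0.004 nM, duplicates), 665/620 ratio, 4-parameter fit.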

[5] = molecular target: T5, recombinant human TRKA (G667C) (Homo sapiens, UniProt P04629, G667C); experiment: In vitro activity test on mutant TRKA (G667C) (HTRF KinEASE TK); format: biochemical; details: 5.5 μM ATP, 30 min
T5 construct: purchased SignalChem
T5 sequence (P04629 33-796 G667C): as the sequence (P04629 33-796 G595R) above, with R563G, G635C counted along it
Outline: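 HTRF KinEASE TK format with recombinant human TRKA G667C (0.026 ng/μL), 1 μM biotinylated TK substrate, 5.5 […] ATP, 5 mM MgCl2, 1 mM DTT, 1% DMSO; 30 min at room temperature. Detection overnight; 665/620 ratio gives % inhibition, IC50 from 4-parameter fit over 10 doses (1 μM–0.004 nM).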

[6] = test system: KM12-LUC cells; experiment: KM12-LUC cell proliferation experiment (CellTiter-Glo, 72 hours); format: cell-based; details: Homo sapiens; KM12-LUC cells expressing TPM3-NTRK1 fusion gene
From the text: Biological Test Example 3: KM12-LUC Cell Proliferation Experiment
Human colon cancer cell line KM12-LUC (LUC, stably expressing Luciferase) expressing TPM3-NTRK1 fusion gene was used to evaluate cellular activity of the compounds cellular level. The TRK fusion gene in KM12-LUC cells makes it independent on the stimulation of extracellular growth factor, sustainably self-activate and activate the downstream signal pathway associated with cell proliferation such as MAPK-ERK, PI3K-AKT, or the like. […] The method was as follows: On the first day, the cells were seeded into 384-well plates at 2,000 cells/well; on the second day, different concentrations of test compounds were added; and on the 5th day, CellTiter-Glo (Promega) was added to detect cellular potency, and 72 hours cell proliferation inhibition rate was calculated. Statistical analysis was carried out by Prism5 and the inhibition rate of the test compound were calculated, as shown in FIG. 1.

[7] = molecular target: T6, ΔTRKA(G595R) (Homo sapiens, UniProt P04629, G595R, form not given); experiment: Detection of TRK kinase activity on cellular level by ELISA, ΔTRKA(G595R)/NIH-3T3 cells; format: cell-based; details: NIH-3T3 cells stably expressing ΔTRKA(G595R), 2 hours treatment
T6 construct: NIH-3T3 cell line stably expressing ΔTRKA or ΔTRKA(G595R) was constructed by plasmid transfection
T6 sequence (P04629 440-796 G595R limits assumed, form open): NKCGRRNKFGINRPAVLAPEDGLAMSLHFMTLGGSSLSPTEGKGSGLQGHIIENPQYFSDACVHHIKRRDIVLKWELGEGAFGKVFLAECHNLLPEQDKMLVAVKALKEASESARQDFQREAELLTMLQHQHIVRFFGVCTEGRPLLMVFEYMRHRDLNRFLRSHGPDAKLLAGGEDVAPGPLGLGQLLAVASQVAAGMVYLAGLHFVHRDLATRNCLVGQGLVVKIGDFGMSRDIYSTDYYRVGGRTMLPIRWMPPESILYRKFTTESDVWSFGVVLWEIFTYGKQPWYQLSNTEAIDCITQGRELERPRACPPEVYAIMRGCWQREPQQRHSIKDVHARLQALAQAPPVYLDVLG
Method: Biological Test Example 4: Detection of TRK Kinase Activity on Cellular Level by ELISA
NIH-3T3 cell line stably expressing ΔTRKA or ΔTRKA(G595R) was constructed by plasmid transfection.
On the first day, cells were seeded into a 96-well cell culture plate, 10000 cells/well in the medium (DMEM+10% FBS). On the second day, different concentrations of test compounds were added to treat cells for 2 hours, then the cell culture plate was placed on ice; and the supernatant was removed and washed with pre-cooled PBS once. The cells were lysed with NP40 lysis buffer containing protease and phosphatase inhibitor, transferred to an antibody pre-coated plate, and sealed to incubate overnight at 4° C. The remaining steps were proceeded according to the method provided in the ELISA kit (eg, as described in R&D DYC2578-2), results were shown in Table 2.

[8] = Pharmacokinetics experiment in mice; format: in vivo, ICR mice; details: mouse, 5 mg/kg; for Cmax / half-life / AUC(0-t): ICR, plasma, po; for AUC(0-t) / F: p.o.; for AUC(0-t): read-out: AUC0-24 hr
Method: Biological Test Example 6: Pharmacokinetics Experiment of Small Molecular Inhibitors of the Present Invention in Mice
Tested compounds were administered to ICR mice via intravenous administration (IV) and para-oral (PO) administration, and blood samples were taken at different time points. The concentration of the tested article in mouse plasma was measured by LC-MS/MS, and relevant parameters were calculated. Specifically, a desired amount of a compound to be tested was taken and formulated in 5% DMSO+10% Solutol+85% injection water to form a solution at desired concentration for intravenous administration or para-oral administration. Animals were about 6-8 weeks old when the administration experiment started. Blood collection time for intravenous administration: 0.083 h, 0.25 h, 0.5 h, 1 h, 2 h, 4 h, 8 h, and 24 h after administration. Blood collection time for oral administration: 0.25 h, 0.5 h, 1 h, 2 h, 4 h, 6 h, 8 h and 24 h after administration. The biological sample analysis method and sample detection method were established. The pharmacokinetic parameters were calculated using Phoenix Winnonlin 7.0 software according to plasma concentration data at different time points, such as AUC(0-t), AUC(0-∞), T½, Cmax, Tmax, and MRT.

T1 sequence (P04629 33-796): as the sequence (P04629 33-796 G595R) above, with R563G counted along it

SMILES	IC50 [1] [nM]	IC50 [2] [nM]	IC50 [3] [nM]	IC50 [4] [nM]	IC50 [5] [nM]	IC50 [7] [nM]	Cmax [8] [ng/mL]	half-life [8] [h]	AUC(0-t) [8] [ng·h/mL]	F [8] [%]	IC50 [6] [nM]
O[C@@H]1CCN(c2ccc(-c3c(Cl)cnc4ccc(N5C[C@@H](F)C[C@@H]5c5cc(F)ccc5F)nc34)cn2)C1 [Example 65, (R)-1-(5-(3-chloro-6-((2R,4S)-2-(2,5-difluorophenyl)-4-fluoropyrrolidin-1-yl)-1,5-naphthyridin-4-yl)pyridin-2-yl)pyrrolidin-3-ol]	< 1	< 10	< 10	< 10	< 10	< 10					< 10
Fc1ccc(F)c([C@H]2CCCN2c2ccc3nccc(-c4cnn(C5CCNCC5)c4)c3n2)c1 [Example 7, (R)-2-(2-(2,5-Difluorophenyl)pyrrolidin-1-yl)-8-(1-(piperidin-4-yl)-1H-pyrazol-4-yl)-1,5-naphthyridine]	< 50	< 100	< 50	< 1	< 1	< 10					< 10
[2H]c1nc(-c2cnn(C3CCNCC3)c2)c2nc(N3C[C@@H](F)C[C@@H]3c3cc(F)ccc3F)ccc2n1 [Example 58]	< 1	< 10	< 1	< 1	< 1	< 10					< 10
Fc1ccc(F)c([C@H]2C[C@H](F)CN2c2ccc3ncc(Cl)c(-c4ccc(C5CCNCC5)nc4)c3n2)c1 [Example 63, 7-chloro-2-((2R,4S)-2-(2,5-difluorophenyl)-4-fluoropyrrolidin-1-yl)-8-(6-(piperidin-4-yl)pyridin-3-yl)-1,5-naphthyridine]	< 1	< 10	< 10	< 10		< 10					< 10
O[C@H]1CCN(c2ncc(-c3ncnc4ccc(N5C[C@@H](F)C[C@@H]5c5cc(F)ccc5F)nc34)cn2)C1 [Example 72, (S)-1-(5-(6-((2R,4S)-2-(2,5-difluorophenyl)-4-fluoropyrrolidin-1-yl)pyrido[3,2-d]primidin-4-yl)pyrimidin-2-yl)pyrrolidin-3-ol]	< 1	< 1	< 1	< 1	< 10						
Fc1ccc(F)c([C@H]2C[C@H](F)CN2c2ccc3ncc(F)c(-c4cnn(C5CNC5)c4)c3n2)c1 [Example 29, 8-(1-(azetidin-3-yl)-1H-pyrazol-4-yl)-2-((2R,4S)-2-(2,5-difluorophenyl)-4-fluoropyrrolidin-1-yl)-7-fluoro-1,5-naphthyridine]	< 1	< 1	< 1	< 1	< 1						

Now from value to compound, other results behind:

IC50 [1] [nM]	IC50 [2] [nM]	IC50 [3] [nM]	IC50 [4] [nM]	IC50 [5] [nM]	IC50 [7] [nM]	Cmax [8] [ng/mL]	half-life [8] [h]	AUC(0-t) [8] [ng·h/mL]	F [8] [%]	SMILES	IC50 [6] [nM]
< 1	< 1	< 1	< 10	< 1		714	2.34	3230	107	Fc1ccc(F)c([C@H]2C[C@H](F)CN2c2ccc3ncc(Cl)c(-c4cnn(C5CCNCC5)c4)c3n2)c1 [Example 16, 7-chloro-2-((2R,4S)-2-(2,5-difluorophenyl)-4-fluoropyrrolidin-1-yl)-8-(1-(piperidin-4-yl)-1H-pyrazol-4-yl)-1,5-naphthyridine]	
< 1	< 10	< 1								O=C1CNCCN1c1ccc(-c2c(F)cnc3ccc(N4C[C@@H](F)C[C@@H]4c4cc(F)ccc4F)nc23)cn1 [Example 97, 1-(5-(6-((2R,4S)-2-(2,5-difluorophenyl)-4-fluoropyrrolidin-1-yl)-3-fluoro-1,5-naphthyridin-4-yl)pyridin-2-yl)piperazin-2-one]	< 10
< 1	< 1	< 1	< 1	< 1		448	2.82	2700	144	Fc1ccc(F)c([C@H]2C[C@H](F)CN2c2ccc3ncc(F)c(-c4cnn(C5CCNCC5)c4)c3n2)c1 [Example 20]	

From US20220017512A1 (SHANGHAI ENNOVABIO PHARMACEUTICALS CO., LTD., priority 2018, published 2022)
